In patent publication US5229362A, “Antibiotic A10255 complex and factors, and process and production therefor” (Eli Lilly and Company, priority 1991, dated 1993):

Tested on: rumen-cannulated wethers
Assay: Rumen lactic acidosis in rumen-cannulated wethers switched abruptly to concentrate
Type: in vivo, sheep
Conditions: 60 mg/d; Day 6, 12-hr sample

CC[C@@]1([C@@H]2O[C@@H]([C@H]3O[C@@](O)(CO)[C@H](C)C[C@@H]3C)C[C@@H]2C)CC[C@H]([C@]2(C)CC[C@]3(C[C@H](O)[C@@H](C)[C@@H]([C@@H](C)[C@@H](OC)[C@H](C)C(=O)O)O3)O2)O1 [Monensin]
Rumen pH: 5.02
Ruminal TVFA: 43.6 mM/l
